Laboratory results reported in ChEMBL document CHEMBL1157539, “Thousands of chemical starting points for antimalarial lead identification” (Nature, 2010).

System: Plasmodium falciparum
Assay: GSK_TCMDC: Inhibition of Plasmodium falciparum 3D7 in whole erythrocytes, using parasite LDH activity as an index of growth.
Assay type: functional, organism-based

| SMILES | XC50 (Plasmodium falciparum, 3D7) [nM] | XC50 [nM] |
| --- | --- | --- |
| Cc1ccccc1Nc1nc(NCCCO)c2ccccc2n1 | 407 |  |
| CN(C(=O)c1snnc1-c1ccccc1)C1CCN(CCCCCNC(=O)/C=C/c2ccc(Cl)c(Cl)c2)CC1 | 186 |  |
| COc1cccc(-c2cccc(NC(=O)C3CCN(Cc4ccc(O)cc4)CC3)c2)c1 | 1030 |  |
| Cc1c(CCNC(=O)CCCN2CC(C)CC(C)C2)c2ccccc2n1C (stereo not drawn) | 1270 |  |
| COc1ccc2nccc([C@@H](O)CN3CCC(NCc4ccc5c(c4)NC(=O)CO5)CC3)c2c1 | 1660 |  |
| COc1cc(C(=O)NCCCN2CCN(c3cccc(Cl)c3)CC2)ccc1-c1cc2cc(Cl)c(Cl)cc2[nH]1 | 468 |  |
| CC1(C)CC(=O)c2c(O)cc(OCc3ccncc3)cc2O1 | 1040 |  |
| O=C(CCCCCNC(=O)c1ccc(O)c(-c2cccc(C(F)(F)F)c2)c1)NCCN1CCCCC1 | 888 |  |
| O=C(Nc1ccc(Br)c(Cl)c1)c1cc([N+](=O)[O-])cc2cn[nH]c12 | 1060 |  |
| COc1cccc(NC(=O)COc2ccc(C(=O)Nc3nc4ccccc4[nH]3)cc2)c1 | 970 |  |
| CC(C)N1CCC(N(Cc2ccc(-c3ccc(C(F)(F)F)cc3)cc2)C(=O)Cn2c(CCc3cccc(F)c3F)cc(=O)c3c2CCC3)CC1 | 617 |  |
| Cc1nc(-c2nc(NCCc3cnccn3)ncc2-c2ccsc2)sc1C | 881 |  |
| CC(C)N1CCN(C(CN2CCN(CCCOc3ccc(-c4ccccc4)cc3)CC2)c2ccc(F)cc2)CC1 (stereo not drawn) | 678 |  |
| CCOc1cc(C)ccc1C1CCN(CCCCNC(=O)c2ccc(-c3ccc(Cl)cn3)cc2)CC1 | 1610 |  |
| Nc1ccc2c(N)c3ccccc3nc2c1 | 812 |  |
| CC(=O)c1cccc2[nH]c(C(=O)NC3CCC(CCN4CCc5ccc(C#N)cc5C4)CC3)cc12 (stereo not drawn) | 842 |  |
| O=C(Nc1ccc2nccc(N3CCN4CCC[C@H]4C3)c2c1)c1ccc(Cl)c(Cl)c1 | 340 |  |
| CC(=O)Nc1cccc(CNCc2ccc(-c3cnc(N4CCCC(c5ccccc5)C4)nc3)cc2)c1 (stereo not drawn) | 1190 |  |
| CCOc1cc(C(=O)NCC2CCN(CC3CCCCC3)CC2)ccc1-c1nc2cc(Cl)ccc2[nH]1 | 563 |  |
| Cc1nnsc1C(=O)Nc1ccc(-c2ccc(-c3nc4cccc(C)c4[nH]3)s2)cc1 | 594 |  |
| C=CCOC(=O)N1CCC(CNCc2ccc(-c3ccc(-c4nc5ccccc5[nH]4)s3)cc2)C1 (stereo not drawn) | 229 |  |
| COc1cccc(Nc2nc(C)cc(NCc3ccc(-c4c(C)noc4C)cc3)n2)c1 | 880 |  |
| CNCc1ccc2nc(-c3coc(Cc4cc(Cl)ccc4OCC(C)C)n3)[nH]c2c1 | 838 |  |
| CN1CCN(c2ccnc3ccc(NC(=O)Nc4cccc5ccccc45)cc23)CC1 | 488 |  |
| CCC(C(=O)Nc1ccccc1)n1nc(-c2ccc(C)c(S(=O)(=O)N3CCCCC3)c2)ccc1=O (stereo not drawn) | 1090 |  |

| SMILES | XC50 (Plasmodium falciparum, 3D7) [nM] | XC50 [nM] |
| --- | --- | --- |
| Nc1nccc2ccc(-c3cccc4ncccc34)cc12 | 52.4 |  |
| CCC(=O)Nc1cc(=O)[nH]c2nc(-c3ccc(Cl)cc3)nn12 | 570 |  |
| CCN(CC)CCN1C(=O)C(O)(c2ccccc2Cl)c2c1cc(C#N)cc2C(F)(F)F (stereo not drawn) | 947 |  |
| CCc1ccc(CN2CCC(CNC(=O)c3cc(-c4cccc(C(F)(F)F)c4)cs3)C2)cc1 (stereo not drawn) | 753 |  |
| COc1ccc2c(c1)CCCC2NCCCCNC(=O)c1ccc(NC(=O)c2ccc(Cl)cc2)cc1 (stereo not drawn) | 381 |  |
| CCCCN1CCN(CCCNc2c3ccccc3nc3ccccc23)CC1 | 512 |  |
| Cn1ncc2c3c(CCN4CCC(NCc5ccc6c(c5)NC(=O)CO6)CC4)c(Cl)cnc3ccc21 | 488 |  |
| N#Cc1ccc(-c2ccc(C(=O)NCCCCN3CCC(n4cnc5ccccc54)CC3)cc2)cc1 | 910 |  |
| CCCN(CCC)C(=O)c1cc(C(=O)N[C@@H](Cc2ccccc2)[C@H](O)CNC2CC2)cc(N2CCCCS2(=O)=O)c1 | 156 |  |
| CCN(CC)CCCNCc1ccc(-c2ccc(C(F)(F)F)cc2)cc1 | 993 |  |
| Cc1ccc(CC(C)NCC(O)c2cccc(Cl)c2)cc1F (stereo not drawn) | 742 |  |
| FC(F)(F)c1ccc(NC(=S)NC2CCC(CN3CCC(c4c[nH]c5ccccc45)CC3)CC2)cc1 (stereo not drawn) | 392 | 726 |
| Cc1nc2c(Nc3nc(-c4ccncc4)cs3)ncnc2n1-c1ccccc1Cl | 176 |  |
| CCOC(=O)c1c(CCc2ccc(C(F)(F)F)cc2)nc2c(c1-c1ccc(C(=O)N[C@@H](C)c3ccncc3)cc1)C(=O)N1CCC[C@@H]21 | 924 |  |
| COc1ccc(-c2cncc3ccc(C(=O)NCCCn4ccnc4)nc23)cc1 | 748 |  |
| CN(CC(=O)Nc1ccc(F)c(F)c1F)c1ncnc2sc(-c3ccccc3)cc12 | 874 |  |
| Cc1ccc(Nc2ccnc3ccc(C(F)(F)F)cc23)cc1O | 956 |  |
| Cc1ccc2[nH]cc(/C=C/C(=O)NC3CCC(CCN4CCc5ccc(C#N)cc5CC4)CC3)c2c1 (stereo not drawn) | 916 |  |
| CC(C)CNC(=O)c1ccnc(-c2ccc(CNCCCc3ccccc3)cc2)c1 | 728 |  |
| O=C(Cc1cc(=O)oc2cc(O)ccc12)NC1CCC(CN2CCC(c3c[nH]c4ccccc34)CC2)CC1 (stereo not drawn) | 1130 |  |
| OC1=C2C(=Nc3ccccc3SC2c2cccs2)c2ccccc21 (stereo not drawn) | 229 |  |
| Cc1ccc(NC(=O)c2cccc(CN3CCCN(Cc4cccc(O)c4)CC3)c2)cc1 | 1310 |  |
| N#Cc1cccc(NC(=O)Nc2ccc(-c3ccc(-c4nc5cc(C(F)(F)F)ccc5[nH]4)cc3)cc2)c1 | 145 |  |
| O=C(Nc1ccc(N2CCN(c3ncccc3C(F)(F)F)CC2)nc1)c1cccs1 | 1190 |  |
| CN(Cc1ccc(C#N)cc1)C1CCN(c2cc(NC(=O)c3cccc(F)c3)ccn2)CC1 | 1750 |  |

| SMILES | XC50 (Plasmodium falciparum, 3D7) [nM] | XC50 [nM] |
| --- | --- | --- |
| Cc1cc(N)c2cc(NC(=O)CCC(=O)Nc3ccc4nc(C)cc(N)c4c3)ccc2n1 | 954 |  |
| O=C(Nc1cccc(C(F)(F)F)c1)NC1CCN(c2ccnc3ccccc23)CC1 | 988 |  |
| O=C(NCCc1ccc(Cl)c(Cl)c1)[C@@H]1CCCN1C(=O)c1ccc(O)c(-c2ccc(Cl)c(Cl)c2)c1 | 550 |  |
| COc1cccc(NC(=O)[C@H](C)n2c(=O)[nH]c3ccccc3c2=O)c1 | 764 |  |
| CCOC(=O)C(C(C)=O)C(c1ccccc1)C(C(C)=O)C(=O)OCC (stereo not drawn) | 748 |  |
| C=CCOc1ccc(-c2c(C)[nH]c(C)c(Br)c2=O)cc1 | 283 |  |
| Cc1oc(-c2ccc(Cl)cc2)cc1C(=O)NCCC1CCN(CCCCCNC(=O)/C=C/c2ccc(Cl)c(Cl)c2)CC1 | 446 |  |
| Cc1cc(N[C@@H](Cc2ccccc2)C(=O)NCCc2ccccc2)nc(NCCc2ccccc2)n1 | 850 |  |
| Oc1ccccc1N1CCN(c2ccc(-c3nc4ccccc4[nH]3)cn2)CC1 | 1130 |  |
| c1ccc2c(NCCCCCCCCCNc3ccnc4ccccc34)ccnc2c1 | 115 |  |
| Cc1cc(C)c(CC(C)NCC(O)c2cccc(C(F)(F)F)c2)c(C)c1 (stereo not drawn) | 568 |  |
| COc1ccc(C(=O)CC(=O)c2ccc(OC)cc2OC)c(OC)c1 | 300 |  |
| O=C(CNC(=O)c1ccc(O)cc1)Nc1ccc(-c2cccc(-c3nc4cc(C(F)(F)F)ccc4[nH]3)c2)cc1 | 859 |  |
| O=C(NCCCN1CCN(c2cccc(Cl)c2)CC1)c1ccc(-c2nc3cc(Cl)c(Cl)cc3[nH]2)c(F)c1 | 826 |  |
| CC(=O)Nc1nc(N)c2c(ccc3c2ccn3CC(C)C)n1 | 69.6 |  |
| CC1(C)N=C(N)N=C(N)N1c1cc(Cl)c(Cl)c(Cl)c1 | 11.4 |  |
| Cc1c(-c2cccc(CNCCc3ccc(Cl)cc3)c2)cnc(N)c1C | 1040 |  |
| CC(CN1CCN(C)CC1)C(=O)Nc1cccc(-c2ccc(-c3nc4ccccc4[nH]3)s2)c1 (stereo not drawn) | 632 |  |
| CN(C)CCN(C)Cc1cccc(-c2ccc3c(Nc4ccc(F)cc4Cl)ccnc3c2)c1 | 110 |  |
| CN1CCN(c2cccc(NC(=O)c3ccc(-c4ccc(C#N)cc4)cc3)c2)CC1 | 1260 |  |
| Cc1cccc2nc(-c3cccc(-c4cccc(NC(=O)c5csnn5)c4)c3)[nH]c12 | 304 |  |
| O=C(Nc1cc(C(F)(F)F)cc(C(F)(F)F)c1)Nc1cc(C(F)(F)F)cc(C(F)(F)F)c1 | 727 |  |
| O=C(/C=C/c1ccc(Cl)c(Cl)c1)NCCCCCN1CCC(c2c[nH]c3ccccc23)CC1 | 781 |  |
| Cc1ccc2nc(N/C(N)=N/C(=O)NC3CCCCC3)nc(C)c2c1 | 624 |  |
| O=C(Nc1ccc(-c2nc3ccccc3[nH]2)cc1)c1ccc(N2CCOCC2)c([N+](=O)[O-])c1 | 794 |  |

| SMILES | XC50 (Plasmodium falciparum, 3D7) [nM] | XC50 [nM] |
| --- | --- | --- |
| O=C(CSc1nc(-c2ccccc2Cl)ns1)Nc1ccc2c(c1)OCO2 | 988 |  |
| c1ccc(-c2nc3ccccc3[nH]2)c(Nc2ccnc3cc(-c4nccs4)ccc23)c1 | 740 |  |
| COc1ccc(CNCc2ccccc2)cc1-c1cccc(S(=O)(=O)NCCN2CCCC2)c1 | 786 |  |
| Oc1ccc(CCNc2nc(NCc3ccccc3-c3ccc(C(F)(F)F)cc3)nc(N3CCNCC3)n2)cc1 | 866 |  |
| OCCN1CCN(Cc2ccc(-c3cccc(-c4nc5ccccc5[nH]4)c3)cc2)CC1 | 749 |  |
| COc1ccc(Cl)cc1-c1nc(C(=O)NCCN2CCCCC2)c(C(C)C)s1 | 753 |  |
| CCc1c(CCNCCCCCNCCc2ccc(OC)c(OC)c2CC)ccc(OC)c1OC | 1110 |  |
| c1cc(CN2CCN(c3ccncc3)CC2)cc(-c2ccc(-c3nc4ccccc4[nH]3)s2)c1 | 148 |  |
| c1ccc(-c2ccc(-c3csc(Nc4ccncc4)n3)cc2)cc1 | 1010 |  |
| COCCOc1ccc(Nc2nccc(-c3c(-c4cccc(NC(=O)c5c(F)cccc5F)c4)nn4ccccc34)n2)cc1Cl | 356 |  |
| Cn1cncc1C(=O)Nc1cccc(-c2ccc(-c3nc4cc(F)ccc4[nH]3)cc2)c1 | 735 |  |
| CCc1ccc(NC(=O)c2ccc(CN3CCCN(CCC(C)C)CC3)cc2)cc1 | 632 |  |
| CCC(C)NC(=O)Nc1cccc(-c2cccc(-c3nc4cccc(C)c4[nH]3)c2)c1 (stereo not drawn) | 809 |  |
| CC(C)(C)c1ccc(CN2CCC(CNC(=O)c3cc(-c4ccccc4F)cs3)C2)cc1 (stereo not drawn) | 564 |  |
| O=C(N[C@@H](Cc1ccccc1)C(=O)NC1CCCCCC1)c1ccc(O)c(-c2cccc(C(F)(F)F)c2)c1 | 735 |  |
| O=C(/C=C/c1ccc([N+](=O)[O-])cc1)N1CCC(NS(=O)(=O)c2cccc(C(F)(F)F)c2)CC1 | 847 |  |
| CC(Nc1ncc(-c2ccsc2)c(-c2nccs2)n1)c1ccc2c(c1)OCCO2 (stereo not drawn) | 175 |  |
| O=C(CSc1ccc(Cl)cc1)NC1CCC(CN2CCC(c3c[nH]c4ccccc34)CC2)CC1 (stereo not drawn) | 934 |  |
| CCN(CC)c1ccc(C(=O)Cn2ccc(=N)cc2)cc1 | 998 |  |
| CN1CCN(CCCN(Cc2ccc(-c3ccc(CNCc4ccc5c(c4)OCO5)cc3)cc2)C(=O)Nc2ccccc2)CC1 | 707 |  |
| c1cc(CN2CCCCC2)cc(OCCCNc2ccnc3ccccc23)c1 | 433 |  |
| C[C@H](Cc1ccc(S(=O)(=O)c2ccc(C[C@@H](C)NC[C@H](O)c3cccc(Cl)c3)cc2)cc1)NC[C@H](O)c1cccc(Cl)c1 | 258 |  |
